This is an account of results in ChEMBL document CHEMBL6153065, “Heterologous Expression and Characterization of Estercin A, a Class II Lanthipeptide Derived from Clostridium estertheticum CF016, with Antimicrobial Activity against Clinically Relevant Pathogens” (2025).

Converted amounts (≈) assume the structure as drawn. The source made the active and inactive calls.

For test [1], the system named is Bacillus cereus. Kind of test: Antibacterial activity against Bacillus cereus ATCC14579 assessed as inhibition of bacterial growth at 1 mg/ml incubated for 16 hrs by agar well diffusion assay relative to control. The format is functional. (In general: Agar diffusion results depend on both activity and mobility in agar.)
Test [2] relates to Staphylococcus aureus. The experiment in a line: Antibacterial activity against Staphylococcus aureus LMG15975 assessed as inhibition of bacterial growth at 1 mg/ml incubated for 16 hrs by agar well diffusion assay relative to control. The format is functional.
Test [3] has as its system Lactococcus lactis. The experiment in a line: Antibacterial activity against Lactococcus lactis MG1363 assessed as inhibition of bacterial growth at 1 mg/ml incubated for 16 hrs by agar well diffusion assay relative to control. The format is functional.
The test system of test [4] is Bacillus cereus. Kind of test: Antibacterial activity against Bacillus cereus ATCC14579 assessed as inhibition of bacterial growth by measuring increased activity more than estercin A (100%) at 1 mg/ml incubated for 16 hrs by agar well diffusion assay. The format is functional. Also noted: scale not given: the % may be the effect or the level left.
For test [5], the system named is Lactococcus lactis. Kind of test: Antibacterial activity against Lactococcus lactis MG1363 assessed as inhibition of bacterial growth by measuring increased activity more than estercin A (100%) at 1 mg/ml incubated for 16 hrs by agar well diffusion assay. The format is functional. Also noted: scale not given: the % may be the effect or the level left.
Test [6] relates to Lactococcus lactis. The experiment in a line: Antibacterial activity against Lactococcus lactis MG1363 assessed as bacterial growth inhibition incubated for 18 hrs by Mueller-Hinton broth based doubling dilution method. The format is functional.
Another test concerns Listeria monocytogenes. Kind of test: Antibacterial activity against Listeria monocytogenes LMG10470 assessed as bacterial growth inhibition incubated for 18 hrs by Mueller-Hinton broth based doubling dilution method. The format is functional.
Test [7] has as its system Staphylococcus aureus. The experiment in a line: Antibacterial activity against Staphylococcus aureus LMG10147 assessed as bacterial growth inhibition incubated for 18 hrs by Mueller-Hinton broth based doubling dilution method. The format is functional.
The subject of test [8] is Staphylococcus aureus. Kind of test: Antibacterial activity against methicillin-resistant Staphylococcus aureus LMG15975 assessed as bacterial growth inhibition incubated for 18 hrs by Mueller-Hinton broth based doubling dilution method. The format is functional.
A further test has as its system Enterococcus faecalis. Kind of test: Antibacterial activity against vancomycin-resistant Enterococcus faecalis LMG16216 assessed as bacterial growth inhibition incubated for 18 hrs by Mueller-Hinton broth based doubling dilution method. The format is functional.
A further test concerns Enterococcus faecium. The experiment in a line: Antibacterial activity against vancomycin-resistant Enterococcus faecium LMG16003 assessed as bacterial growth inhibition incubated for 18 hrs by Mueller-Hinton broth based doubling dilution method. The format is functional.
For test [9], the system named is Bacillus cereus. Kind of test: Antibacterial activity against Bacillus cereus ATCC14579 assessed as bacterial growth inhibition incubated for 18 hrs by Mueller-Hinton broth based doubling dilution method. The format is functional.
The next test concerns Clostridium botulinum. Kind of test: Antibacterial activity against Clostridium botulinum CECT551 assessed as bacterial growth inhibition incubated for 18 hrs by Mueller-Hinton broth based doubling dilution method. The format is functional.
For the next test, the system named is Clostridium perfringens. Kind of test: Antibacterial activity against Clostridium perfringens CECT376 assessed as bacterial growth inhibition incubated for 18 hrs by Mueller-Hinton broth based doubling dilution method. The format is functional.
The subject of the next test is Clostridium tetani. Kind of test: Antibacterial activity against Clostridium tetani CECT4629 assessed as bacterial growth inhibition incubated for 18 hrs by Mueller-Hinton broth based doubling dilution method. The format is functional.
The test system of test [10] is Lactococcus lactis. Kind of test: Antibacterial activity against Lactococcus lactis MG1363 assessed as bacterial death at 10 times of MIC by time killing assay. The format is functional, organism-based.
The test system of test [11] is Lactococcus lactis. Kind of test: Binding affinity to Lactococcus lactis MG1363 lipid II at 8 ug by Spot-on-lawn assay. The conditions noted are these: dose 8.0 µg.
Another test concerns Cell membrane. The experiment in a line: Induction of membrane permeabilization in Lactococcus lactis MG1363 assessed as pore forming ability by measuring increase in red fluorescence at 2 times MIC measured after 15 mins by SYTO-9 Green dye/red PI staining based fluorescence microscopy. The format is subcellular.
Test [12] relates to Lactococcus lactis. Kind of test: Antibacterial activity against Lactococcus lactis MG1363 at 1 mg/ml incubated under 22 degreeC for 4 hrs. The format is functional, organism-based.
Test [13] has as its system Lactococcus lactis. Kind of test: Antibacterial activity against Lactococcus lactis MG1363 at 1 mg/ml incubated under 55 degreeC for 4 hrs. The format is functional, organism-based.
In test [14] the test system is Lactococcus lactis. The experiment in a line: Antibacterial activity against Lactococcus lactis MG1363 at 1 mg/ml incubated at pH 2 for 4 hrs. The format is functional, organism-based.
The subject of test [15] is Lactococcus lactis. Kind of test: Antibacterial activity against Lactococcus lactis MG1363 at 1 mg/ml incubated at pH 4 for 4 hrs. The format is functional, organism-based.
In test [16] the test system is Lactococcus lactis. Kind of test: Antibacterial activity against Lactococcus lactis MG1363 at 1 mg/ml incubated at pH 7 for 4 hrs. The format is functional, organism-based.
The subject of test [17] is Lactococcus lactis. Kind of test: Antibacterial activity against Lactococcus lactis MG1363 at 1 mg/ml incubated for 2 hrs in presence of trypsin by agar plate method. The format is functional, organism-based.
Test [18] has as its system Lactococcus lactis. The experiment in a line: Antibacterial activity against Lactococcus lactis MG1363 at 1 mg/ml incubated under 95 degreeC for 4 hrs. The format is functional, organism-based.
Test [19] relates to Lactococcus lactis. The experiment in a line: Antibacterial activity against Lactococcus lactis MG1363 at 1 mg/ml incubated at pH 10 for 4 hrs. The format is functional, organism-based.

Turning to `C=C1NC(=O)[C@H](C(C)C)NC(=O)[C@@H]2CSC[C@@H](C(=O)N[C@@H](CCCCN)C(=O)O)NC(=O)[C@H](CSC[C@H]3NC(=O)[C@H](Cc4ccccc4)NC(=O)[C@@H](NC(=O)[C@@H](NC(=O)[C@@H](NC(=O)[C@@H](NC(=O)CNC(=O)CNC(=O)CN)C(C)C)[C@@H](C)CC)[C@@H](C)O)CSC[C@H](NC(=O)[C@H](CCC(=O)O)NC(=O)[C@H](Cc4c[nH]cn4)NC3=O)C(=O)N[C@@H](Cc3ccc(O)cc3)C(=O)N[C@@H](Cc3ccc(O)cc3)C(=O)N[C@@H](CC(N)=O)C(=O)N2)NC(=O)[C@H]([C@@H](C)O)NC(=O)CNC(=O)[C@H](Cc2c[nH]c3ccccc23)NC(=O)[C@H](CO)NC(=O)[C@H](C)NC(=O)[C@@H]2CCCN2C1=O`, the result with Bacillus cereus [1], in the test on Staphylococcus aureus [2] and with Lactococcus lactis [3] was inactive.

`C=C1NC(=O)[C@H](C(C)C)NC(=O)[C@@H]2CSC[C@@H](C(=O)N[C@@H](CCCCN)C(=O)O)NC(=O)[C@H](CSC[C@@H]3NC(=O)[C@H](Cc4ccccc4)NC(=O)[C@@H](NC(=O)[C@@H](NC(=O)[C@@H](NC(=O)[C@@H](NC(=O)CNC(=O)[C@H](CC(N)=O)NC(=O)CN)C(C)C)[C@@H](C)CC)[C@@H](C)O)CSC[C@H](NC(=O)[C@H](CCC(=O)O)NC(=O)[C@H](Cc4c[nH]cn4)NC3=O)C(=O)N[C@@H](Cc3ccc(O)cc3)C(=O)N[C@@H](Cc3ccc(O)cc3)C(=O)N[C@@H](CC(N)=O)C(=O)N2)NC(=O)CNC(=O)CNC(=O)[C@H](Cc2c[nH]c3ccccc23)NC(=O)[C@H](CO)NC(=O)[C@H](C)NC(=O)[C@@H]2CCCN2C1=O`: the Activity in the test on Staphylococcus aureus [2] is on record as 100%; in the test on Bacillus cereus [4], 20%; in the test with Lactococcus lactis [5], 20%.

In the case of `C=C1NC(=O)[C@H](C(C)C)NC(=O)[C@@H]2CSC[C@@H](C(=O)N[C@@H](CCCCN)C(=O)O)NC(=O)[C@H](CSC[C@@H]3NC(=O)[C@H](Cc4ccccc4)NC(=O)[C@@H](NC(=O)[C@@H](NC(=O)[C@@H](NC(=O)[C@@H](NC(=O)CNC(=O)CNC(=O)CN)C(C)C)[C@@H](C)CC)[C@@H](C)O)CSC[C@H](NC(=O)[C@H](CCC(=O)O)NC(=O)[C@H](Cc4c[nH]cn4)NC3=O)C(=O)N[C@@H](Cc3ccc(O)cc3)C(=O)N[C@@H](Cc3ccc(O)cc3)C(=O)N[C@@H](CC(N)=O)C(=O)N2)NC(=O)CNC(=O)CNC(=O)[C@H](Cc2c[nH]c3ccccc23)NC(=O)[C@H](CO)NC(=O)[C@H](C)NC(=O)[C@@H]2CCCN2C1=O`, the MIC (in general, the smallest concentration in the dilution series that meets the test's criterion for growth inhibition) in the test with Lactococcus lactis [6] was 4 µg/mL (≈ 1.47 µM); in the test on Listeria monocytogenes, greater than 64 µg/mL; in the test on Staphylococcus aureus [7], 16 µg/mL (≈ 5.87 µM); in the test on Staphylococcus aureus [8], 4 µg/mL (≈ 1.47 µM); with Enterococcus faecalis, 64 µg/mL (≈ 23.5 µM); in the test on Enterococcus faecium it was 64 µg/mL (≈ 23.5 µM). Also, the MIC is 8 µg/mL (≈ 2.94 µM) with Bacillus cereus [9], 32 µg/mL (≈ 11.7 µM) in the test on Clostridium botulinum, 1 µg/mL (≈ 0.367 µM) in the test with Clostridium perfringens and 4 µg/mL (≈ 1.47 µM) in the test with Clostridium tetani. The Activity result in the test on Lactococcus lactis [10] is “Not active; Slower Rate Of Killing Observed”; with Cell membrane, “Not active; Only Green Fluorescence Observed”; in the test with Lactococcus lactis [17], “Active; More Resistant Compared To Nisin”; in the test with Bacillus cereus [1], 100%; with Staphylococcus aureus [2], 100%; in the test with Lactococcus lactis [3], 100%. Besides, in the test on Lactococcus lactis [18], the Activity result was “Not active; Less Than 30% Reduction In Activity Observed Relative To Control”. Besides, the result with Lactococcus lactis [11], with Lactococcus lactis [14], with Lactococcus lactis [15], in the test with Lactococcus lactis [16] and in the test on Lactococcus lactis [19] was Active. The outcome in the test with Lactococcus lactis [12] and in the test on Lactococcus lactis [13] was inactive.

`C=C(NC(=O)[C@@H](NC(=O)[C@H](Cc1c[nH]cn1)NC(=O)[C@@H](NC(=O)[C@H](CO)NC(=O)[C@@H]1CS[C@@H](C)[C@H]2NC(=O)C(=C)NC(=O)[C@H](NC(=O)[C@H](CCCCN)NC(=O)[C@H](CCSC)NC(=O)[C@H](CC(N)=O)NC(=O)[C@@H]3CS[C@@H](C)[C@@H](NC(=O)[C@H](CCCNN)NC(=O)[C@@H]4CS[C@@H](C)[C@@H](NC(=O)[C@@H]5CSC[C@@H](NC(=O)/C(=C\C)NC(=O)[C@@H](N)[C@@H](C)CC)C(=O)N[C@@H]([C@@H](C)CC)C(=O)NC(=C)C(=O)N[C@@H]([C@@H](C)CC)C(=O)N5)C(=O)N5CCC[C@H]5C(=O)NCC(=O)N4)C(=O)NCC(=O)N[C@@H](C)C(=O)N[C@@H]([C@@H](C)CC)C(=O)N[C@@H](CCSC)C(=O)NCC(=O)N3)[C@H](C)SC[C@H](NC2=O)C(=O)N[C@@H](Cc2c[nH]cn2)C(=O)N1)[C@@H](C)CC)C(C)C)C(=O)N[C@@H](CCCCN)C(=O)O`: the MIC was found to be 0.016 µg/mL (≈ 0.00477 µM) in the test on Lactococcus lactis [6]; 8 µg/mL (≈ 2.39 µM) in the test on Listeria monocytogenes; 16 µg/mL (≈ 4.77 µM) in the test with Staphylococcus aureus [7]; 4 µg/mL (≈ 1.19 µM) with Staphylococcus aureus [8]; 4 µg/mL (≈ 1.19 µM) in the test on Enterococcus faecalis; 4 µg/mL (≈ 1.19 µM) in the test with Enterococcus faecium. The minimal inhibitory concentration (MIC) in the test on Bacillus cereus [9] came to 4 µg/mL (≈ 1.19 µM); in the test on Clostridium botulinum, 4 µg/mL (≈ 1.19 µM); in the test with Clostridium perfringens, 1 µg/mL (≈ 0.298 µM); in the test with Clostridium tetani it was 4 µg/mL (≈ 1.19 µM). Also, the Activity result in the test with Lactococcus lactis [10] is listed as “Active; Rapid Cell Death Observed”. The result in the test on Cell membrane, in the test on Lactococcus lactis [14], with Lactococcus lactis [15], in the test on Lactococcus lactis [16] and in the test with Lactococcus lactis [19] was Active.
